The source of these data is patent US7037931B2, “CCK-1 receptor modulators” (Janssen Pharmaceutica N.V., priority 2002, dated 2006).

In general, melting point refers to the temperature of the solid-liquid transition. For the compound `COc1ccc(-n2nc(C[C@H](C(=O)[O-])c3cccc(C)c3)cc2-c2ccc(Cl)c(Cl)c2)cc1.[Na+]` (stereo in doubt) [Example 505], the melting point lay in the range of 280 to 285 °C.

In turn, `COc1ccc(-n2nc(C[C@H](C(=O)[O-])c3cccc(C)c3)cc2-c2ccc(Cl)c(Cl)c2)cc1.[Na+]` [Example 1, (S)-Sodium; 3-[5-(3,4-dichloro-phenyl)-1-(4-methoxy-phenyl)-1H-pyrazol-3-yl]-2-m-tolyl-propionate] displayed a melting point of 295.5 to 297.5 °C.

Consider `CON(C)C(=O)c1ccc(Cl)c(Cl)c1` [Example 511, 3,4-Dichloro-N-methoxy-N-methyl-benzamide], for which the melting point was 39.5 to 43.2 °C.
